Test results as given in patent EP1935986B1, “Luminogenic and fluorogenic compounds and methods to detect molecules or conditions” (priority 2005, dated 2006).

What was measured:
QuantiLum Luciferase [1] = target: T1, QuantiLum Luciferase (Photinus pyralis, UniProt P08659); experiment: ATP titration of firefly luciferase reactions with luciferin and fluoroluciferins; assay type: biochemical; details: result in words
T1 construct: purchased Promega Corporation E170
Protocol: All compounds except 5'-fluoroluciferin and DTT were purchased from Sigma Chemical. To some of this reagent 5 mM ATP (Amersham/Invitrogen) was added, then serially diluted by half-logs to 0.05 mM. Reactions were initiated by adding equal volumes (0.1 ml) of reagent and DMEM medium (Gibco/Invitrogen) containing 0.1% Prionex® (Pentapharm) and 1.4 x 10-5 mg/ml QuantiLum™ Luciferase (Promega Corporation).
For ATP titrations for 7'-fluoroluciferin, reagent was created containing 200 mM HEPES, 200 mM PIPES, 1 mM CDTA, 0.5% Tergitol NP-9, 0.03% Benzyl dodecyldimethyl ammonium bromide, 30 mM thiourea, 10 mM magnesium sulfate, and 0.15 mM 7'-fluoroluciferin. This solution was separated into 3 parts and pH of the reagents were 7.4, 7.2 and 6.7. To some of this reagent, 10 mM ATP (Amersham/Invitrogen) was added. The ATP was serially diluted by quarter-logs from 10 mM to 0.32 mM.
Reactions were initiated by adding equal volumes (0.03 ml) of reagent and DMEM medium (Gibco/Invitrogen) containing 0.1% Prionex® (Pentapharm) and 1.4 x 10-5 mg/ml QuantiLum™ Luciferase (Promega Corporation).
Luminescence was measured for 0.5 seconds per well using Berthold Orion luminometer.

QuantiLum Luciferase [2] = target: T1, QuantiLum Luciferase; experiment: Emission spectra of luciferase reactions with luciferin, 5'-fluoroluciferin, 7'-fluoroluciferin; assay type: biochemical, firefly; details: reagent pH 7.4
Protocol: All compounds except fluoroluciferin and ATP were purchased from Sigma Chemical. ATP was purchased from Amersham/Invitrogen.
Spectra were measured using 0.5s integration with 1 nm increments on a Spex Fluorolog.

QuantiLum Luciferase [3] = target: T1, QuantiLum Luciferase; experiment: pH dependence of firefly luciferase luminescence with luciferin or 5'-fluoroluciferin; assay type: biochemical; details: for Absolute Luminescence: 630 µM substrate
Protocol: Aliquots of these solutions were then placed into tubes and buffers were added to 80 mM.
Luminescent reactions were initiated by combining 100 µl of the luciferase-containing solution and 100 µl of the luciferase detection reagents. Luminescence was integrated over 1 second per sample using the Veritas plate luminometer (Turner BioSystems). N=3 for each result.
The average luminescence measured for each set of samples is listed in Table 50 (relative standard deviation ≤ 4.0%). […]

CYP4A11 = target: T2, CYP4A11 (Homo sapiens, UniProt Q02928); experiment: Two-step luminescent P450 screen of luciferin derivatives; assay type: biochemical; details: result in words
T2 construct: purchased Discovery Labware (BD/Gentest); host or cells: insect cell expression system (membrane fractions)
T2 sequence (Q02928 5-519): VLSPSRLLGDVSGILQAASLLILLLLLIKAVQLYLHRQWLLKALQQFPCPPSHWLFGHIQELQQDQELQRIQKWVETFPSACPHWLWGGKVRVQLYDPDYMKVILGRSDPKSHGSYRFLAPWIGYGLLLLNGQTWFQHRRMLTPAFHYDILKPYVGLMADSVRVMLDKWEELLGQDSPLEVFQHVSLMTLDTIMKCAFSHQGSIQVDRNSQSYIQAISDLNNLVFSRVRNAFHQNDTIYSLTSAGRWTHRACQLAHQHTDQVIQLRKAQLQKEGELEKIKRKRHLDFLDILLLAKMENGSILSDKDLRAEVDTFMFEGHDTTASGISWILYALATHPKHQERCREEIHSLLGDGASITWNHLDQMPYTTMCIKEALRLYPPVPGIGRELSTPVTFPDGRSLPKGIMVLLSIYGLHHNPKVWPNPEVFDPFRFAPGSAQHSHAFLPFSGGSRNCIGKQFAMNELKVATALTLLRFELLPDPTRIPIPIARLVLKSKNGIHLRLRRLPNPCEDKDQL
Protocol: (§1) P450s are Supersomes™ purchased from Discovery Labware (BD/Gentest). […] HLM is human liver microsomes.
(§2) 1X substrate concentration: 50 µM.

CYP2C9 = target: T3, CYP2C9 (Homo sapiens, UniProt P11712); experiment: as above; assay type: biochemical; details: 50 µM substrate, 1 pmole P450; result in words
T3 construct: purchased Discovery Labware (BD/Gentest); host or cells: insect cell expression system (membrane fractions)
Protocol: as §1, §2

[4] = tested on: panel of recombinant human P450s; experiment: Two-step luminescent P450 screen of luciferin derivatives, whole panel incl. HLM; assay type: biochemical; details: 50 µM substrate; result in words
Protocol: In addition, it was also of interest to identify substrates with improved selectivity for single P450 enzymes. […] Derivatives useful as P450 substrates may be employed in assays to detect inhibitors for particular P450 enzymes (see Figures 17-18).
as §1, §2

porcine esterase = experiment: Two-step luminescent carboxylesterase assay with D-luciferin esters; assay type: biochemical; details: result in words
Description: D-luciferin esters were substrates for carboxylesterases in a two step luminescent assay format similar to that used for P450s. […] Though signals varied between P450 preparations no P450 preparation was much brighter than the control. It seems likely then that the signals were not due to P450 activity in the preparations hut rather, variable amounts of carboxyl esterase activities. Methyl, ethyl and picolinyl esters of D-luciferin were also characterized as substrates for a purified preparation of porcine esterase without any p450. In this format each ester linked group was cleaved by the esterase to yield D-luciferin that in turn reacted with luciferase to make light.

T1 sequence (P08659 whole entry): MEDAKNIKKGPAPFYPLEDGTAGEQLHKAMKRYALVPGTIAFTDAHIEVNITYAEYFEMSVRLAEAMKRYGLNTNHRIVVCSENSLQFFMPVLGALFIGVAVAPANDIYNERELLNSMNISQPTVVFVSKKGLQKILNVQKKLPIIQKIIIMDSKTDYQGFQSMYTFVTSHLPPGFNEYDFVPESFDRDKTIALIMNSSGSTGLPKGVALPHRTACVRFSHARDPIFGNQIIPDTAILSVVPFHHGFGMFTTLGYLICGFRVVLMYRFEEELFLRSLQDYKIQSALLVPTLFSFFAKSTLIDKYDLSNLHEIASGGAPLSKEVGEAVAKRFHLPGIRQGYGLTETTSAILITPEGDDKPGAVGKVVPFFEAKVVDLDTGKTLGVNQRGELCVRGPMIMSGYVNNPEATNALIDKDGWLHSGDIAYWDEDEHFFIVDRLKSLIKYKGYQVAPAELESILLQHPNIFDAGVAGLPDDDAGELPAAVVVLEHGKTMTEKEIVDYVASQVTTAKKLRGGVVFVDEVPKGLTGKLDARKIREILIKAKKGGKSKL
T3 sequence (P11712 whole entry): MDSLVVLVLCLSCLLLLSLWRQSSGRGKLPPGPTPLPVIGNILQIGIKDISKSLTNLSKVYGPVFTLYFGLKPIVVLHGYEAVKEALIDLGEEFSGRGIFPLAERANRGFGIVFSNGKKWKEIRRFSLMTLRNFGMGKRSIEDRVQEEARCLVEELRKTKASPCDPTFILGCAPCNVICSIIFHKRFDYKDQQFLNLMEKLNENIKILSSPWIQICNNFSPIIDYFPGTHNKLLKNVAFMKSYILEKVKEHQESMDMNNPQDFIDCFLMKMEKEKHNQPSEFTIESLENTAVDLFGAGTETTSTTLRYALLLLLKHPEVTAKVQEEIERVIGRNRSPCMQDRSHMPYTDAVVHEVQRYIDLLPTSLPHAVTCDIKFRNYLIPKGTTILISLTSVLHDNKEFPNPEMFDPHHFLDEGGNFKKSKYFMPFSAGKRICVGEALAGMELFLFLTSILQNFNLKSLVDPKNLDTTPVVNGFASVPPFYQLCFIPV

SMILES: O=C(O)[C@H]1CSC(c2nc3cc(F)c(O)cc3s2)=N1 [5'-fluoroluciferin]
- ATP requirement of the luciferase reaction compared with luciferin (QuantiLum Luciferase [1]): saturated with ATP at a higher concentration
- λmax of luminescence, blue-shifted from regular luciferin (QuantiLum Luciferase [2]): approximately 25 nm
- λmax of luminescence, blue-shifted from regular luciferin (QuantiLum Luciferase [2]; listed as 5' fluoroluciferin): about 10 nm
- Absolute Luminescence (QuantiLum Luciferase [3]; pH 6.900, MOPS): 272,127 RLU
- change of luminescence over the pH range tested (QuantiLum Luciferase [3]; pH 6.9 to 8.3): about 40%
- Absolute Luminescence (QuantiLum Luciferase [3]; pH 7.133, MOPS): 325,337 RLU
- Absolute Luminescence (QuantiLum Luciferase [3]; pH 7.296, MOPS): 331,515 RLU
- Absolute Luminescence (QuantiLum Luciferase [3]; pH 7.303, HEPES): 323,456 RLU
- Absolute Luminescence (QuantiLum Luciferase [3]; pH 7.499, MOPS): 334,288 RLU
- Absolute Luminescence (QuantiLum Luciferase [3]; pH 7.521, HEPES): 360,308 RLU
- Absolute Luminescence (QuantiLum Luciferase [3]; pH 7.673, Tricine): 351,411 RLU
- Absolute Luminescence (QuantiLum Luciferase [3]; pH 7.720, HEPES): 378,927 RLU
- Absolute Luminescence (QuantiLum Luciferase [3]; pH 7.883, Tricine): 357,883 RLU
- decrease of luminescence when buffer changed from HEPES to tricine (QuantiLum Luciferase [3]; pH 7.89 reagent): 6%
- Absolute Luminescence (QuantiLum Luciferase [3]; pH 7.892, HEPES): 377,498 RLU
- Absolute Luminescence (QuantiLum Luciferase [3]; pH 8.100, Tricine): 357,041 RLU
- Absolute Luminescence (QuantiLum Luciferase [3]; pH 8.327, Tricine): 317,030 RLU

SMILES: COc1cc2nc(C3=NC(C(=O)O)CS3)sc2cc1OC (stereo not drawn) [5,6-dimethoxyluciferin]
- P450 activity / selectivity with the derivative as substrate (CYP4A11): preferred substrate
- P450 activity / selectivity with the derivative as substrate (CYP2C9): preferred substrate
- luminescent signals with the panel of P450 enzymes [4]: did not produce large luminescent signals with any P450

SMILES: Nc1ccc(Oc2ccc3nc(C4=N[C@@H](C(=O)O)CS4)ccc3c2)cc1 [6(p-aminophenyloxy)-quinolylluciferin]
- luminescent signals with the panel of P450 enzymes [4]: did not produce large luminescent signals with any P450

SMILES: CCOC(=O)[C@H]1CSC(c2nc3ccc(O)cc3s2)=N1 [D-luciferin ethyl ester]
- substrate for carboxylesterases in a two step luminescent assay format (porcine esterase): effective

SMILES: COC(=O)[C@H]1CSC(c2nc3ccc(O)cc3s2)=N1 [D-luciferin methyl ester]
- substrate for carboxylesterases in a two step luminescent assay format (porcine esterase): effective

SMILES: O=C(OCc1cccnc1)[C@H]1CSC(c2nc3ccc(O)cc3s2)=N1 [D-luciferin picolinyl ester, m-picolinyl ester of luciferin]
- substrate for carboxylesterases in a two step luminescent assay format (porcine esterase): effective
